pIC50: −log10 of the molar value. “And” between values parts separate entries of the source, which are not always exact repeats. Equal values may be shown once. Each block holds one compound with its values, some of them ahead of it.
System: 883617-216-R-J1-PDC complex spheroid viability
Assay: Anticancer human tumor 883617-216-R-J1-PDC patient-derived bladder carcinoma cell line growth inhibition
Conditions: for viability, T/C: stronger effect = lower value
Method in brief: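 Multicellular complex spheroids of tumor cells with human endothelial cells (HUVEC) and mesenchymal stem cells; the LSD1 inhibitor iadademstat was combined with standard-of-care or investigational agents. Top concentration at or near clinical Cmax, half-log dilutions; final DMSO ≤0.25%.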

[1] = curve of first compound, second compound 0.1 µM
[2] = curve of first compound, second compound 0.316 µM
[3] = curve of first compound, second compound 1 µM
[4] = curve of first compound, second compound 3.16 µM
[5] = curve of first compound, second compound 10 µM
[6] = second compound 0.1 µM, first compound 0.000316 µM
[7] = second compound 0.1 µM, first compound 0.001 µM
[8] = second compound 0.1 µM, first compound 0.00316 µM
[9] = second compound 0.1 µM, first compound 0.01 µM
[10] = second compound 0.1 µM, first compound 0.0316 µM
[11] = second compound 0.1 µM, first compound 0.1 µM
[12] = second compound 0.316 µM, first compound 0.000316 µM
[13] = second compound 0.316 µM, first compound 0.001 µM
[14] = second compound 0.316 µM, first compound 0.00316 µM
[15] = second compound 0.316 µM, first compound 0.01 µM
[16] = second compound 0.316 µM, first compound 0.0316 µM
[17] = second compound 0.316 µM, first compound 0.1 µM
[18] = second compound 1 µM, first compound 0.000316 µM
[19] = second compound 1 µM, first compound 0.001 µM
[20] = second compound 1 µM, first compound 0.00316 µM
[21] = second compound 1 µM, first compound 0.01 µM
[22] = second compound 1 µM, first compound 0.0316 µM
[23] = second compound 1 µM, first compound 0.1 µM
[24] = second compound 3.16 µM, first compound 0.000316 µM
[25] = second compound 3.16 µM, first compound 0.001 µM
[26] = second compound 3.16 µM, first compound 0.00316 µM
[27] = second compound 3.16 µM, first compound 0.01 µM
[28] = second compound 3.16 µM, first compound 0.0316 µM
[29] = second compound 3.16 µM, first compound 0.1 µM
[30] = second compound 10 µM, first compound 0.000316 µM
[31] = second compound 10 µM, first compound 0.001 µM
[32] = second compound 10 µM, first compound 0.00316 µM
[33] = second compound 10 µM, first compound 0.01 µM
[34] = second compound 10 µM, first compound 0.0316 µM
[35] = second compound 10 µM, first compound 0.1 µM
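Also: exposure lasted seven days after three days of spheroid growth.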
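For viability, T/C in this document: 100% = DMSO vehicle control luminescence.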

SMILES: Nc1ccccc1NC(=O)c1ccc(CNC(=O)OCc2cccnc2)cc1 + NC1CC1c1ccc(-c2cccc(O)c2)cc1
pIC50 [1]: 6.72 | pIC50 [2]: 6.74 | pIC50 [3]: 6.75 | pIC50 [4]: 6.84 | pIC50 [5]: 6.99 | viability, T/C (second compound 0.1 µM, first compound 0.00949 µM): 103% | viability, T/C (second compound 0.1 µM, first compound 0.03 µM): 106% | viability, T/C (second compound 0.1 µM, first compound 0.0949 µM): 64.8% | viability, T/C (second compound 0.1 µM, first compound 0.3 µM): 36.2% | viability, T/C (second compound 0.1 µM, first compound 0.949 µM): 19.2% | viability, T/C (second compound 0.1 µM, first compound 3 µM): 0.5% | viability, T/C (second compound 0.316 µM, first compound 0.00949 µM): 110% | viability, T/C (second compound 0.316 µM, first compound 0.03 µM): 96% | viability, T/C (second compound 0.316 µM, first compound 0.0949 µM): 64.8% | viability, T/C (second compound 0.316 µM, first compound 0.3 µM): 36.9% | viability, T/C (second compound 0.316 µM, first compound 0.949 µM): 15.8% | viability, T/C (second compound 0.316 µM, first compound 3 µM): 0.25% | viability, T/C (second compound 1 µM, first compound 0.00949 µM): 116% | viability, T/C (second compound 1 µM, first compound 0.03 µM): 96.6% | viability, T/C (second compound 1 µM, first compound 0.0949 µM): 62.7% | viability, T/C (second compound 1 µM, first compound 0.3 µM): 39.1% | viability, T/C (second compound 1 µM, first compound 0.949 µM): 12.6% | viability, T/C (second compound 1 µM, first compound 3 µM): 0.26% | viability, T/C (second compound 3.16 µM, first compound 0.00949 µM): 115% | viability, T/C (second compound 3.16 µM, first compound 0.03 µM): 91.2% | viability, T/C (second compound 3.16 µM, first compound 0.0949 µM): 57.3% | viability, T/C (second compound 3.16 µM, first compound 0.3 µM): 35.6% | viability, T/C (second compound 3.16 µM, first compound 0.949 µM): 11.9% | viability, T/C (second compound 3.16 µM, first compound 3 µM): 0.25% | viability, T/C (second compound 10 µM, first compound 0.00949 µM): 91.5% | viability, T/C (second compound 10 µM, first compound 0.03 µM): 80.7% | viability, T/C (second compound 10 µM, first compound 0.0949 µM): 43.5% | viability, T/C (second compound 10 µM, first compound 0.3 µM): 33.9% | viability, T/C (second compound 10 µM, first compound 0.949 µM): 13.6% | viability, T/C (second compound 10 µM, first compound 3 µM): 0.23%

pIC50 (curve of compound): < 5.00
SMILES: CC(C)c1c(-c2ccccc2)nc2c(C#N)c[nH]n2c1=O
viability, T/C (compound 0.0316 µM): 97.4% and 97.3% | viability, T/C (compound 0.1 µM): 97.7% and 103% | viability, T/C (compound 0.316 µM): 104% and 111% | viability, T/C (compound 1 µM): 96% and 94.4% | viability, T/C (compound 3.16 µM): 98.8% and 101% | viability, T/C (compound 10 µM): 86.8% and 86.7%

SMILES: CC(C)CC(NC(=O)CNC(=O)c1cc(Cl)ccc1Cl)B1OC(=O)CC(CC(=O)O)(C(=O)O)O1 (configuration not stated) + NC1CC1c1ccc(-c2cccc(O)c2)cc1
pIC50 [1]: 8.44 | pIC50 [2]: 8.46 | pIC50 [3]: 8.58 | pIC50 [4]: 8.58 | pIC50 [5]: 8.73 | viability, T/C [6]: 95.3% | viability, T/C [7]: 97.8% | viability, T/C [8]: 49.6% | viability, T/C [9]: 21.4% | viability, T/C [10]: 0.86% | viability, T/C [11]: 0.21% | viability, T/C [12]: 123% | viability, T/C [13]: 121% | viability, T/C [14]: 50.4% | viability, T/C [15]: 18% | viability, T/C [16]: 1% | viability, T/C [17]: 0.16% | viability, T/C [18]: 105% | viability, T/C [19]: 108% | viability, T/C [20]: 39.5% | viability, T/C [21]: 18.4% | viability, T/C [22]: 0.85% | viability, T/C [23]: 0.15% | viability, T/C [24]: 97.7% | viability, T/C [25]: 93.3% | viability, T/C [26]: 37.4% | viability, T/C [27]: 19.5% | viability, T/C [28]: 0.76% | viability, T/C [29]: 0.15% | viability, T/C [30]: 81.1% | viability, T/C [31]: 69.3% | viability, T/C [32]: 33.2% | viability, T/C [33]: 10.2% | viability, T/C [34]: 0.25% | viability, T/C [35]: 0.36%

SMILES: CC(C)CC(NC(=O)CNC(=O)c1cc(Cl)ccc1Cl)B1OC(=O)CC(CC(=O)O)(C(=O)O)O1 (configuration not stated) + NC1CCC(NC2CC2c2ccccc2)CC1
pIC50 [1]: 8.20 | pIC50 [2]: 8.14 | pIC50 [3]: 8.19 | pIC50 [4]: 8.18 | pIC50 [5]: 8.20 | viability, T/C [6]: 101% | viability, T/C [7]: 112% | viability, T/C [8]: 74.7% | viability, T/C [9]: 32.5% | viability, T/C [10]: 11.9% | viability, T/C [11]: 1.23% | viability, T/C [12]: 108% | viability, T/C [13]: 110% | viability, T/C [14]: 86.4% | viability, T/C [15]: 34.8% | viability, T/C [16]: 11.1% | viability, T/C [17]: 0.94% | viability, T/C [18]: 101% | viability, T/C [19]: 107% | viability, T/C [20]: 83% | viability, T/C [21]: 29% | viability, T/C [22]: 10.3% | viability, T/C [23]: 0.98% | viability, T/C [24]: 101% | viability, T/C [25]: 108% | viability, T/C [26]: 75.8% | viability, T/C [27]: 34.5% | viability, T/C [28]: 9.37% | viability, T/C [29]: 1.62% | viability, T/C [30]: 111% | viability, T/C [31]: 106% | viability, T/C [32]: 79% | viability, T/C [33]: 31.8% | viability, T/C [34]: 4.25% | viability, T/C [35]: 0.93%
